Source: PubChem BioAssay (NCI)
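GI50 = concentration required for 50% inhibition of growth. TGI denotes the concentration required for complete inhibition of growth.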

Tests used:
Test in all cases: NCI tumour cell line growth inhibition, 384-well format
[1] = test system: A549 NSCLC
[2] = test system: ACHN renal
[3] = test system: HCC-2998 colon
[4] = test system: HOP-92 NSCLC
[5] = test system: HS 578T breast
[6] = test system: K-562 leukemia
[7] = test system: KM12 colon
[8] = test system: MALME-3M melanoma
[9] = test system: MDA-MB-435 melanoma
[10] = test system: MDA-MB-468 breast
[11] = test system: OVCAR-5 ovarian
[12] = test system: SR leukemia
[13] = test system: UO-31 renal

N#Cc1cnc(Nc2cc(NC[C@H]3CNCCO3)c(C(F)(F)F)cn2)cn1
GI50 [1]: 21500 nM
TGI [1]: > 100000 nM
GI50 [2]: 305 nM
TGI [2]: 1220 nM
GI50 [3]: 402 nM
TGI [3]: 3090 nM
GI50 [4]: 504 nM
TGI [4]: 9530 nM
GI50 [5]: 337 nM
TGI [5]: 2220 nM
GI50 [6]: 580 nM
TGI [6]: 2230 nM
GI50 [7]: 1670 nM
TGI [7]: 18000 nM
GI50 [8]: 7250 nM
TGI [8]: 22900 nM
GI50 [9]: 1770 nM
TGI [9]: 10500 nM
GI50 [10]: 13900 nM
TGI [10]: 27200 nM
GI50 [11]: 17100 nM
TGI [11]: 43900 nM
GI50 [12]: 57.2 nM
TGI [12]: 186 nM
GI50 [13]: 588 nM
TGI [13]: > 100000 nM
